The values below come from article PMC8064871 (International Journal of Biological Macromolecules, 2021).

The target in this test is T1, human chymotrypsin-C (CTRC) (Homo sapiens, UniProt Q99895).
T1 sequence (Q99895 30-268): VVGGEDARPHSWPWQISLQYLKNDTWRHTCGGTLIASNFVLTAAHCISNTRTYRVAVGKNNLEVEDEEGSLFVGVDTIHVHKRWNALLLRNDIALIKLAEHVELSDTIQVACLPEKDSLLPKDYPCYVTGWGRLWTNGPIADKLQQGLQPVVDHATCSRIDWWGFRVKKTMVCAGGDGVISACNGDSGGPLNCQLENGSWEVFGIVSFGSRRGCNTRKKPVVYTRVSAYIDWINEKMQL
The experiment in a line: In vitro assessment of human chymotrypsin C. In kind it is biochemical. To be noted: 0, 1, 10, 100 µM; 30 min at 37 °C; OD405.

Each structure is given as a SMILES string.

As for `CC1=CC(=O)c2ccccc2C1=O` [Entry 1, 2-Methyl-1,4-naphthoquinone (vitamin K3), reference compound], the “inhibition of human CTRC activity (in words)” value was “selectively inhibit SARS-CoV-2 and SARS-CoV 3CL^pro, rather than human CTRC”.
